From ChEMBL document CHEMBL1142784, “Discovery and in vitro evaluation of potent kinase inhibitors: Pyrido[1',2':1,5]pyrazolo[3,4-d]pyrimidines” (Bioorg Med Chem Lett, 2005) come the findings set out here.

Assay [1] concerns the target Glycogen synthase kinase-3 (Homo sapiens, UniProt P49840+P49841). Briefly: Inhibitory concentration against GSK3-beta by using [gamma-33P]-ATP as radioligand expressed in Escherichia coli in pH 7.2 for 19 min at room temperature.
Assay [2] addresses Vascular endothelial growth factor receptor (Homo sapiens, UniProt P17948+P35916+P35968). Briefly: Inhibitory concentration against VEGFR(10 nM) by using homogeneous time-resolved fluorescence detection in pH 7.5.
Assay [3] concerns the target Receptor tyrosine-protein kinase erbB-2 (Homo sapiens, UniProt P04626). Briefly: Inhibitory concentration against ErbB-2 protein tyrosine kinase by using [gamma-33P]-ATP as radioligand in pH 7.5.
The target of assay [4] is Epidermal growth factor receptor (Homo sapiens, UniProt P00533). The assay is described as follows: Inhibitory concentration against EGFR by using [gamma-33P]-ATP as radioligand in pH 7.5.
Epidermal growth factor receptor, sequence (P00533 whole entry): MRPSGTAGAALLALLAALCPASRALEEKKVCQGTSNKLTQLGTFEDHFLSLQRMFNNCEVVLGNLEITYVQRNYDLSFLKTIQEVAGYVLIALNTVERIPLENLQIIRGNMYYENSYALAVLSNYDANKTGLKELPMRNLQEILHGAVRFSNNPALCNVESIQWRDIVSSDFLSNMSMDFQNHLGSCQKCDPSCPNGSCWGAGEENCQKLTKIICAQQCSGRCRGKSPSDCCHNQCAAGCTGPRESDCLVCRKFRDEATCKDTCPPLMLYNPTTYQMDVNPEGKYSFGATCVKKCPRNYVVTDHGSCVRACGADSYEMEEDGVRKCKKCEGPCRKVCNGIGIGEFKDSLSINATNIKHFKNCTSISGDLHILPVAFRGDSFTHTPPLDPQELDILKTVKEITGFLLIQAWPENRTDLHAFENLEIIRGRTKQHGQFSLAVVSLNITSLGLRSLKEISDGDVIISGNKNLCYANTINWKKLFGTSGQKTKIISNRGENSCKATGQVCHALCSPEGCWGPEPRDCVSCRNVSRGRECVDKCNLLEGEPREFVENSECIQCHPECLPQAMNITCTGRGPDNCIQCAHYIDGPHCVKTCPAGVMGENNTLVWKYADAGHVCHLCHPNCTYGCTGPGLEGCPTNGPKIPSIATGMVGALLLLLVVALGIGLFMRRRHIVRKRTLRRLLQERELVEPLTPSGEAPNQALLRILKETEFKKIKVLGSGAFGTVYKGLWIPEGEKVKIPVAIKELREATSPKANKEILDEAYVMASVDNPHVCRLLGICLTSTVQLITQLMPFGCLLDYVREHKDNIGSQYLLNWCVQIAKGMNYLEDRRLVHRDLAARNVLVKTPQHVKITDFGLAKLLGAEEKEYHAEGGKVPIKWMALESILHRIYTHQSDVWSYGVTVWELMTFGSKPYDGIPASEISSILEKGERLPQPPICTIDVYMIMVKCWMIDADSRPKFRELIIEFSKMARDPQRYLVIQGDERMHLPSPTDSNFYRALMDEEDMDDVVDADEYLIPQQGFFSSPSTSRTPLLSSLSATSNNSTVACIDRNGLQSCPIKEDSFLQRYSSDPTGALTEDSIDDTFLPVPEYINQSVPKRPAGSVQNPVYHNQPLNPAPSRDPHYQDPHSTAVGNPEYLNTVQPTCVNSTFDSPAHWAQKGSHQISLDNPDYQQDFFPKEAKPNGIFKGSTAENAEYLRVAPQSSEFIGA

Receptor tyrosine-protein kinase erbB-2, sequence (P04626 whole entry): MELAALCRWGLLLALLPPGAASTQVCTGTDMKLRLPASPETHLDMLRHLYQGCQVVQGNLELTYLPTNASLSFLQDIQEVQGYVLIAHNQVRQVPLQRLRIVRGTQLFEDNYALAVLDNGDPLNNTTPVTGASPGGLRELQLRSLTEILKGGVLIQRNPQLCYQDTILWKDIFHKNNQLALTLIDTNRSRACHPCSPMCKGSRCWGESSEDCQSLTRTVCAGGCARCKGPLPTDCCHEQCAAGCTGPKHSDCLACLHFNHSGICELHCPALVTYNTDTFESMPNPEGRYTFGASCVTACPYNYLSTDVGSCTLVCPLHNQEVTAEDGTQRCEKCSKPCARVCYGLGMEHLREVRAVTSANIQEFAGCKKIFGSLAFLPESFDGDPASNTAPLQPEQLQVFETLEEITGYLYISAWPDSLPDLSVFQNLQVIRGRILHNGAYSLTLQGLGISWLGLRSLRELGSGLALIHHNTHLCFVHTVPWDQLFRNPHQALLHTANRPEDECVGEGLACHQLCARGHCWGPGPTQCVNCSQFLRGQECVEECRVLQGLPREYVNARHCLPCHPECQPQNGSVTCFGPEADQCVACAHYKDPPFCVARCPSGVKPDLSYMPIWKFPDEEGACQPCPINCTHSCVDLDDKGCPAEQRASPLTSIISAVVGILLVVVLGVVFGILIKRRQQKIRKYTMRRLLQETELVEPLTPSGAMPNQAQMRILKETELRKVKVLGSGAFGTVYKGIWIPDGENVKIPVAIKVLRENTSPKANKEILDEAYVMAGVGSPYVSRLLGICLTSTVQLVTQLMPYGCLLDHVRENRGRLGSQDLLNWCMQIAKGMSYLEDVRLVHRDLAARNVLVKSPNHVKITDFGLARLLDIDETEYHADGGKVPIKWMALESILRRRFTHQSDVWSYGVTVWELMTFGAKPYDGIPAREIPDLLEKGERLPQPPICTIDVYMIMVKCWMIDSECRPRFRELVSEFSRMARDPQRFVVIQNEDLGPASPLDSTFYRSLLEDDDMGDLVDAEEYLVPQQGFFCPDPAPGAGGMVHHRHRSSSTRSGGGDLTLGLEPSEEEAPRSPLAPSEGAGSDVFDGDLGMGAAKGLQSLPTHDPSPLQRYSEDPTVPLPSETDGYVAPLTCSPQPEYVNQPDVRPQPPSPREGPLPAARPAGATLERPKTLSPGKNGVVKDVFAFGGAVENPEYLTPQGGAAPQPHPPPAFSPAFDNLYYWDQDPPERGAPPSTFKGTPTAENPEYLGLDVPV

In general, IC50 refers to the concentration at which inhibition is half-maximal. Lower therefore signals greater potency in that assay. Take `O=C(Nc1cccc([N+](=O)[O-])c1)Nc1ncnc2nn3ccccc3c12`: the IC50 in assay [1] was 316 nM; in assay [2], greater than 10000 nM.

As for `O=C(Nc1ccc(Br)cc1)Nc1ncnc2nn3ccccc3c12`, the IC50 in assay [1] was 1000 nM; in assay [2] it was 3980 nM.

`Nc1ncnc2nn3ccccc3c12`: the IC50 in assay [3] and in assay [4] was greater than 10000 nM each time.

Consider `N#Cc1cccc(NC(=O)Nc2ncnc3nn4ccccc4c23)c1`, for which the results for the IC50 in assay [1] and in assay [2] were 126 nM and 200 nM, respectively.

In the case of `O=C(Nc1ccc(F)cc1)Nc1ncnc2nn3ccccc3c12`, the IC50 in assay [1] is greater than 10000 nM; in assay [2], 631 nM.

Regarding `c1ccc(Cc2nc3ccc(Nc4ncnc5nn6ccccc6c45)cc3[nH]2)cc1`, the figures for the IC50 in assay [3] and in assay [4] were 1580 nM and 5010 nM, respectively.

Take `O=C(Nc1cccc(C(F)(F)F)c1)Nc1ncnc2nn3ccccc3c12`: the IC50 in assay [1] stood at 158 nM; in assay [2], 251 nM.

With `Clc1cc(Nc2ncnc3nn4ccccc4c23)ccc1OCc1ccccc1`, the IC50 came out at 200 nM in assay [3] and 50 nM in assay [4].

Consider `O=C(Nc1ccc(C(F)(F)F)cc1)Nc1ncnc2nn3ccccc3c12`, for which the IC50 in assay [1] turned out to be 1580 nM; in assay [2] it was 3980 nM.
